Experimental data from the NIST ThermoML archive (doi:10.1021/je060210c).

Columns and labels:
[1] = excess molar enthalpy (molar enthalpy of mixing); xn = mol fraction of the nth substance listed; settings: 101 kPa, Liquid
[2] = xn = mol fraction of the nth substance listed; settings: 101 kPa, Liquid; for speed of sound: Sing-around technique in a fixed-path interferometer

C=C1CCC2CC1C2(C)C (stereo not drawn) [β-pinene] + CCCCCO
Settings	excess molar enthalpy [kcal/mol]	mass density [kg/m3]	speed of sound [m/s]
[1], 283.15 K, x1 = 0.049	0.00669	–	–
[1], 283.15 K, x1 = 0.096	0.0155	–	–
[1], 283.15 K, x1 = 0.192	0.0325	–	–
[1], 283.15 K, x1 = 0.286	0.05	–	–
[1], 283.15 K, x1 = 0.388	0.0645	–	–
[1], 283.15 K, x1 = 0.488	0.0753	–	–
[1], 283.15 K, x1 = 0.588	0.081	–	–
[1], 283.15 K, x1 = 0.69	0.0825	–	–
[1], 283.15 K, x1 = 0.791	0.077	–	–
[1], 283.15 K, x1 = 0.892	0.0605	–	–
[1], 283.15 K, x1 = 0.95	0.0478	–	–
[1], 283.15 K, x1 = 0.97	0.0359	–	–
[1], 283.15 K, x1 = 0.99	0.0227	–	–
[1], 298.15 K, x1 = 0.049	0.0177	–	–
[1], 298.15 K, x1 = 0.096	0.037	–	–
[1], 298.15 K, x1 = 0.192	0.075	–	–
[1], 298.15 K, x1 = 0.286	0.11	–	–
[1], 298.15 K, x1 = 0.388	0.14	–	–
[1], 298.15 K, x1 = 0.488	0.16	–	–
[1], 298.15 K, x1 = 0.588	0.172	–	–
[1], 298.15 K, x1 = 0.69	0.174	–	–
[1], 298.15 K, x1 = 0.791	0.161	–	–
[1], 298.15 K, x1 = 0.892	0.126	–	–
[1], 298.15 K, x1 = 0.95	0.092	–	–
[1], 298.15 K, x1 = 0.97	0.0731	–	–
[1], 298.15 K, x1 = 0.99	0.0588	–	–
[1], 313.15 K, x1 = 0.049	0.0256	–	–
[1], 313.15 K, x1 = 0.096	0.0535	–	–
[1], 313.15 K, x1 = 0.192	0.106	–	–
[1], 313.15 K, x1 = 0.286	0.155	–	–
[1], 313.15 K, x1 = 0.388	0.194	–	–
[1], 313.15 K, x1 = 0.488	0.221	–	–
[1], 313.15 K, x1 = 0.588	0.236	–	–
[1], 313.15 K, x1 = 0.69	0.238	–	–
[1], 313.15 K, x1 = 0.791	0.222	–	–
[1], 313.15 K, x1 = 0.892	0.182	–	–
[1], 313.15 K, x1 = 0.95	0.128	–	–
[1], 313.15 K, x1 = 0.97	0.0954	–	–
[1], 313.15 K, x1 = 0.99	0.0327	–	–
[2], 283.15 K, x1 = 0.1075	–	830.13	1327.7
[2], 283.15 K, x1 = 0.2016	–	836.79	1328.9
[2], 283.15 K, x1 = 0.3016	–	843.32	1330.6
[2], 283.15 K, x1 = 0.4028	–	849.41	1331.6
[2], 283.15 K, x1 = 0.5026	–	854.98	1333.2
[2], 283.15 K, x1 = 0.6034	–	860.24	1335.1
[2], 283.15 K, x1 = 0.7014	–	865.12	1337.8
[2], 283.15 K, x1 = 0.8036	–	869.97	1341.4
[2], 283.15 K, x1 = 0.9009	–	874.43	1346.2
[2], 283.15 K, x1 = 0.9481	–	876.59	1349.3
[2], 298.15 K, x1 = 0.1004	–	–	1275
[2], 298.15 K, x1 = 0.1057	–	819.15	–
[2], 298.15 K, x1 = 0.2012	–	825.47	–
[2], 298.15 K, x1 = 0.2024	–	–	1275.5
[2], 298.15 K, x1 = 0.3032	–	831.91	–
[2], 298.15 K, x1 = 0.3081	–	–	1275.8
[2], 298.15 K, x1 = 0.3975	–	–	1275.9
[2], 298.15 K, x1 = 0.4023	–	837.67	–
[2], 298.15 K, x1 = 0.4982	–	–	1276.4
[2], 298.15 K, x1 = 0.4984	–	842.91	–
[2], 298.15 K, x1 = 0.6021	–	848.24	1277.9
[2], 298.15 K, x1 = 0.6945	–	852.74	–
[2], 298.15 K, x1 = 0.696	–	–	1279.6
[2], 298.15 K, x1 = 0.7994	–	857.65	–
[2], 298.15 K, x1 = 0.8066	–	–	1283
[2], 298.15 K, x1 = 0.8952	–	–	1286.9
[2], 298.15 K, x1 = 0.8997	–	862.25	–
[2], 298.15 K, x1 = 0.9465	–	864.37	–
[2], 298.15 K, x1 = 0.9528	–	–	1291
[2], 313.15 K, x1 = 0.1007	–	807.27	–
[2], 313.15 K, x1 = 0.1023	–	–	1223.7
[2], 313.15 K, x1 = 0.2007	–	–	1221.7
[2], 313.15 K, x1 = 0.2048	–	814.01	–
[2], 313.15 K, x1 = 0.3027	–	819.95	–
[2], 313.15 K, x1 = 0.3049	–	–	1220.9
[2], 313.15 K, x1 = 0.4019	–	825.6	1220.4
[2], 313.15 K, x1 = 0.5024	–	830.92	1220.6
[2], 313.15 K, x1 = 0.5976	–	835.75	1221.2
[2], 313.15 K, x1 = 0.6977	–	840.54	1222.1
[2], 313.15 K, x1 = 0.7991	–	845.26	1224.3
[2], 313.15 K, x1 = 0.9066	–	850.18	1228.6
[2], 313.15 K, x1 = 0.9468	–	852.1	1231
